Measurements reported in PubChem BioAssay (NCI).
Values joined by “and” are separate entries in the source; they are usually repeats but may differ in a detail not shown here. Equal values may be shown once.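 These data come from cells grown in 96-well plates and exposed to compound for 48 hours at five concentrations. GI50 marks 50% less growth. TGI denotes the concentration required for complete inhibition of growth.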

What was measured:
Test in all cases: DTP human tumour cell line panel, 48 h
[1] = tested on: 786-0 renal
[2] = tested on: NCI-H226 lung
[3] = tested on: UACC-62 melanoma
[4] = tested on: SF-268 CNS
[5] = tested on: NCI-H522 lung
[6] = tested on: U251 CNS
[7] = tested on: SN12C renal
[8] = tested on: HCC-2998 colon
[9] = tested on: UO-31 renal
[10] = tested on: SK-OV-3 ovarian

Row | SMILES | GI50 [1] | TGI [1] [µM] | GI50 [2] [µM] | TGI [2] [µM] | GI50 [3] [µM] | TGI [3] [µM] | GI50 [4] [µM] | TGI [4] [µM] | GI50 [5] [µM] | TGI [5] [µM] | GI50 [6] [µM] | TGI [6] [µM] | GI50 [7] [µM] | TGI [7] [µM] | GI50 [8] [µM] | TGI [8] [µM] | GI50 [9] [µM] | TGI [9] [µM] | GI50 [10] [µM] | TGI [10] [µM]
1 | O=C1c2cccnc2C(=O)c2c1c(C(=O)OCCc1ccccn1)c1ccccn21 | 0.252 µM | 1.26 | 0.0277 | 0.472 | 0.0202 | 0.219 | 0.0188 | 5.31 | 0.12 | 0.714 | 0.0216 | 0.261 | 0.0261 | 1.59 | 0.12 | 2.08 | < 0.0117 | 0.387 | 0.0539 | 1.17
2 | C=C1C(=O)c2cc3c(cc2C(c2cc(OC)c(OC)c(OC)c2)[C@@H]1C(=O)O)OCO3 (some centres not stated) |  | > 100 |  | > 100 |  | > 100 |  |  |  | > 100 |  | > 100 |  | > 100 |  | > 100 |  | > 100 |  | > 100
3 | CC(=O)N(CCN1C(=O)c2ccccc2C1=O)CCN1C(=O)c2ccccc2C1=O |  | > 100 |  |  |  | > 100 |  | > 100 |  | > 100 |  | > 100 |  | > 100 |  | > 100 |  | > 100 |  | > 100
4 | COC(=O)c1nc(C(=O)OC)c2c([nH]c3ccccc32)c1C(=O)OC |  | > 100 |  | > 100 |  | > 100 |  |  |  |  |  | > 100 |  | > 100 |  | > 100 |  | 75.9 |  | 
5 | COc1ccccc1NC(=O)C(=O)Cc1cnc2ccccc2n1 |  | > 100 |  | > 100 |  | > 100 |  | > 100 |  |  |  | > 100 |  | > 100 |  | > 100 |  | > 100 |  | > 100
6 | N#Cc1c2ccccc2c2nnc3ccc(C(F)(F)F)cc3n12 | > 100 µM | > 100 |  |  | 66.8 | > 100 | 80.7 | > 100 | 17 | 68.1 | 28.9 | > 100 | > 100 | > 100 |  |  | 85.6 | > 100 | 89.9 | > 100
7 | NCCCNc1nc2ccc(Cl)cc2c2c(=O)c3cc(F)ccc3sc12 | 1.92 µM | 5.88 | 8.58 | 25.1 | 2.83 | 8.41 | 4.1 | 18.2 | 2.26 | 5.67 |  |  | 2.27 | 6.08 | 1.89 | 4.38 | 3.35 | 16.1 |  | 
8 | O=C1NC(=O)C2C1C1C=C3c4ccccc4N(c4ccccc4)C32[C@H]2C(=O)NC(=O)[C@@H]12 (some centres not stated) |  | > 100 |  | > 100 |  | > 100 |  | > 100 |  | > 100 |  |  |  | > 100 |  | > 100 |  | > 100 |  | > 100
9 | N#Cc1c2ccccc2c2nnc3ccccc3n12 | 53.2 µM | > 100 |  |  |  |  | 50 | > 100 |  |  | 17.7 | 70 |  |  |  |  | 20 | > 100 | > 100 | > 100
10 | Cc1ccc(NC(=O)c2nc(S(C)(=O)=O)oc2-c2ccc(F)cc2)cc1Nc1ccc2ncn(C)c(=O)c2c1 | 2 µM | 3.55 | 2.33 | 5.52 | 2.03 | 4.88 |  |  |  |  | 2.01 | 3.84 |  |  | 2.54 | 6.47 | 1.93 | 3.4 | 14.1 | 27.1
11 | O=C(O)c1cn(C2CC2)c2cc(N3CCN(C(=O)Nc4nc(-c5ccc(Br)cc5)cs4)CC3)c(F)cc2c1=O | 1.75 µM | > 100 |  |  |  |  | 1.23 | > 100 | 2.41 | > 100 | 1.96 | > 100 | 3.07 | > 100 | 2.97 | > 100 | 1.64 | > 100 |  | 
12 | O=c1[nH]c(F)nc2c1ncn2C1OC(CO)C(O)C1O (configuration not stated) | > 100 µM | > 100 | > 100 | > 100 | > 100 | > 100 | > 100 | > 100 |  |  | > 100 | > 100 | > 100 | > 100 | > 100 | > 100 | > 100 | > 100 | > 100 | > 100
13 | O=C(/C=C/c1nnc2n(Cc3ccccc3)c(=O)c3c4c(sc3n12)CCCC4)c1ccccc1 | 1.56 µM and 2.36 µM |  |  |  | > 100 | > 100 | 4.59 | > 100 | 1.09 | > 100 | 2.22 | 7.76 |  |  | > 100 | > 100 | 3.06 |  | > 100 | > 100
14 | CC1=NC=C(O)c2ccccc2O1 |  | > 100 |  |  |  | > 100 |  | > 100 |  |  |  | > 100 |  | > 100 |  | > 100 |  | > 100 |  | > 100
15 | C#CCn1c(=O)c2cccnc2n(CC#C)c1=O |  | > 100 |  | > 100 |  |  |  | > 100 |  | > 100 |  | > 100 |  | > 100 |  | > 100 |  |  |  | > 100
16 | O=C(Cc1ccccc1)N/N=C(/c1nc2ccc([N+](=O)[O-])cc2[nH]c1=O)C(O)c1ccc(C(O)/C(=N/NC(=O)Cc2ccccc2)c2nc3ccc([N+](=O)[O-])cc3[nH]c2=O)cc1 (configuration not stated) |  | > 100 |  | > 100 |  | > 100 |  | > 100 |  | 94.6 |  |  |  | > 100 |  | > 100 |  |  |  | > 100
17 | O=C1Oc2cc3c(c4cccc1c24)OCN(c1ccccc1)C3 |  | > 100 |  |  |  | > 100 |  | > 100 |  | 56.9 |  | > 100 |  | > 100 |  | > 100 |  | > 100 |  | > 100
18 | O=C(O)CCC1CCc2cccc(OCC(=O)O)c2C1=O (configuration not stated) |  | > 100 |  |  |  | > 100 |  |  |  |  |  | > 100 |  | > 100 |  | > 100 |  |  |  | > 100
19 | NC1=NC2=C(CCCC2)C(c2cccs2)S1 (configuration not stated) |  | > 100 |  |  |  | > 100 |  | > 100 |  | > 100 |  | > 100 |  | > 100 |  | > 100 |  | 74.3 |  | > 100
20 | Fc1ccc(C2SCc3nc4ccccc4n32)cc1F (configuration not stated) |  | > 100 |  |  |  | > 100 |  | > 100 |  | 61.7 |  | > 100 |  | > 100 |  | > 100 |  | 41 |  | > 100
